Test results from patent US8003369B2, “Bacteriolytic agent” (priority 2005, dated 2011).

Test system: Escherichia coli (E-coli) cell
Test: Bacteriolytic power (number of bacterial cells after 3 days vs blank)
Type: cell-based
Conditions: 50 μl of agent diluted to 50% as surfactant in 0.5 ml E. coli cell solution, 20° C.
Procedure: Into a 2 ml-screw tube were added 0.5 ml of a solution of an Escherichia coli (E-coli) cell and 50 μl of a bacteriolytic agent aqueous diluted solution which had been diluted so as to be a concentration of 50% as a surfactant with a micropipette, and the mixture was mixed well. The mixture was stored by allowing to stand at 20° C. for 3 days, which was used as a sample, and the number of bacterium cells was measured with a super deep profile measurement microscope (manufactured by KEYENCE CORPORATION, VK-8500). Bacteriolytic power was calculated by a following equation.
As a blank, 50 μl of ion-exchanged water was used in place of a bacteriolytic agent aqueous diluted solution. Bacteriolytic power (%)=[1−(the number of bacterial cells in sample after 3 days/the number of bacterial cells of blank)]×100 Determination Criteria: […]

| Compound | Bacteriolytic power (score) |
| --- | --- |
| CC(=O)[O-].CCCCCCCCCC[N+](C)(C)CCCCCCCCCC [Example 4, acetate salt of didecyldimethylammonium] | 5 (Bacteriolytic power ≧ 80%) |
| CCCCCCCCCC[N+](C)(C)CCCCCCCCCC.[Cl-] [compound 3, didecyldimethylammonium chloride, reference compound] | 4 (60% ≦ Bacteriolytic power < 80%) |
| adipate salt of didecyldimethylammonium [Example 3] | 5 (Bacteriolytic power ≧ 80%) |
| citric acid salt of didecyldimethylammonium [Example 2] | 5 (Bacteriolytic power ≧ 80%) |
| cyclopentane tetracarboxylic acid salt of didecyldimethylammonium [Example 1] | 5 (Bacteriolytic power ≧ 80%) |
| cyclopentanetetracarboxylic acid salt of distearyldimethylammonium [Example 5] | 4 (60% ≦ Bacteriolytic power < 80%) |

Test system: not given
Test: not given
Conditions: 25° C.; cited from earlier work

| Compound | pKa (pKa1, first stage dissociation constant) |
| --- | --- |
| O=C(O)CCCCCCCC(=O)O [azelaic acid] | 4.6 |
| CCCCCC(=O)O [caproic acid] | 4.9 |
| CCOP(=O)(O)O [ethylphosphoric acid] | 1.6 |
| O=C(O)[C@H](O)[C@@H](O)[C@H](O)[C@H](O)CO [gluconic acid] | 2.2 |
| N[C@@H](CCC(=O)O)C(=O)O [glutamic acid] | 2.3 |
| O=C(O)CCCC(=O)O [glutaric acid] | 4.3 |
| COP(=O)(O)O [methylphosphoric acid] | 1.5 |
| O=C(O)c1cc(C(=O)O)c(C(=O)O)cc1C(=O)O [pyromellitic acid] | 1.9 |

Same assay, conditions: second stage dissociation; cited from earlier work

| Compound | pKa2 |
| --- | --- |
| O=C(O)CCCCC(=O)O [adipic acid] | 5.3 |
